How the values were obtained:
[1] = tested on: RAW264.7; assay: Inhibition of LPS-induced nitric oxide synthesis in mouse RAW264.7 macrophages after 18 hrs of LPS challenge measured after 18 hrs by ELISA relative to LPS-treated control; format: functional
[2] = tested on: RAW264.7; assay: Inhibition of LPS-induced nitric oxide synthesis in mouse RAW264.7 macrophages at 0.1 uM after 18 hrs of LPS challenge measured after 18 hrs by ELISA relative to LPS-treated control; format: functional; conditions: RAW264.7, 18 h
[3] = tested on: RAW264.7; assay: Inhibition of LPS-induced nitric oxide synthesis in mouse RAW264.7 macrophages at 0.1 uM pretreated 18 hrs before arginine challenge assessed after 18 hrs by ELISA relative to LPS-treated control; format: functional
[4] = tested on: RAW264.7; assay: Inhibition of LPS-induced nitric oxide synthesis in mouse RAW264.7 macrophages at 0.1 uM after 18 hrs by ELISA relative to LPS-treated control; format: functional; conditions: RAW264.7, 18 h
[5] = tested on: RAW264.7; assay: Inhibition of LPS-induced nitric oxide synthesis in mouse RAW264.7 macrophages at 30 uM pretreated 18 hrs before arginine challenge assessed after 18 hrs by ELISA relative to LPS-treated control; format: functional
[6] = tested on: RAW264.7; assay: Inhibition of LPS-induced nitric oxide synthesis in mouse RAW264.7 macrophages after 18 hrs by ELISA; format: functional, cell-based
[7] = tested on: RAW264.7; assay: Inhibition of LPS-induced nitric oxide synthesis in mouse RAW264.7 macrophages at 30 uM after 18 hrs of LPS challenge measured after 18 hrs by ELISA relative to LPS-treated control; format: functional; conditions: RAW264.7, 18 h
[8] = tested on: RAW264.7; assay: Inhibition of LPS-induced nitric oxide synthesis in mouse RAW264.7 macrophages at 30 uM after 18 hrs by ELISA relative to LPS-treated control; format: functional; conditions: RAW264.7, 18 h

N=C(N)NN [PIMAGEDINE]
inhibition (INH) [1]: 78.8%

CNC(=N)NCCC[C@H](N)C(=O)O [TILARGININE]
inhibition at 0.1 µM [2]: 53.3% | inhibition at 0.1 µM [3]: 25.8% | inhibition at 0.1 µM [4]: 60.5%

C=C(C(CC=C(C)C)OC(=O)/C(C)=C\C)C1[C@H](OC(C)=O)C(=O)[C@@]2(C)O[C@H]2[C@@H]1OC(C)=O (some centres undefined)
inhibition at 30 µM [5]: 68.9% | Activity [6]: Dose-dependent effect | IC50 ([6]; RAW264.7, 18 h): 8.9 µM | inhibition at 30 µM [7]: 11.1% | inhibition at 30 µM [8]: 71.1%
